Results as given in patent US20230109839A1, “THERAPEUTIC AGENT FOR TAUOPATHIES” (SUMITOMO PHARMA CO., LTD., priority 2020, published 2023).

Target: T1, human Nav1.1 (Homo sapiens, UniProt P35498)
T1 construct: host or cells: HEK293
Experiment: Amplification of Nav1.1-derived voltage-gated sodium current (Nav1.1 current), automated patch clamp (Test 1)
Format: cell-based
Conditions: HEK293 cell line stably expressing human Nav1.1; for activation at 1 µM: HEK293, Concentration for evaluation 1 μM, read-out: Nav1.1 current amplification rate (%)
Summary of the method: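 Compound-induced change in ramp-evoked sodium current peak and AUC was expressed as 100×post/pre ratio minus 100. Recordings used automated patch clamp in voltage-clamp mode on a stable human Nav1.1 HEK293 line, including only cells above 500 pA. Compounds were delivered in extracellular fluid containing 1% DMSO.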

[1] = Concentration for evaluation 50 μM
[2] = Concentration for evaluation 1 μM
[3] = Concentration for evaluation 3 μM
[4] = Concentration for evaluation 10 μM

| SMILES | Nav1.1 current amplification rate (%) [2] | also measured |
| --- | --- | --- |
| C#CCN(C)c1cnc2cnn(CC(=O)Nc3ccc4ncnn4c3)c2n1 [Example 662] | – | Nav1.1 current amplification rate (%) [1]: 47% |
| CN(CC1CC1)c1cnc2cnn(CC(=O)Nc3ccc4ncnn4c3)c2n1 [Example 663] | 13% | – |
| CN(c1cnc2cnn(CC(=O)Nc3ccc4ncnn4c3)c2n1)C1CC1 [Example 664] | 34% | – |
| CC(C)N(C)c1cnc2cnn(CC(=O)Nc3ccc4ncnn4c3)c2n1 [Example 665] | – | Nav1.1 current amplification rate (%) [1]: 63% |
| CN(c1cnc2cnn(CC(=O)Nc3ccc4ncnn4c3)c2n1)C1CC2(CC2)C1 [Example 666] | 64% | – |
| CN(CC1(C)CC1)c1cnc2cnn(CC(=O)Nc3ccc4ncnn4c3)c2n1 [Example 667] | 45% | – |
| CN(c1ncc2cnn(CC(=O)Nc3ccc4ncnn4c3)c2n1)C1CC(C)(C)C1 [Example 668] | 72% | – |
| CN(c1cnc2cnn(CC(=O)Nc3ccc4ncnn4c3)c2n1)C1CCCC1 [Example 669] | 30% | – |
| CN(c1cnc2cnn(CC(=O)Nc3ccn4ccnc4c3)c2n1)C1CCCC1 [Example 670] | 77% | – |
| CN(c1cnc2cnn(CC(=O)Nc3cccc(N4CCOCC4)c3F)c2n1)C1CCCC1 [Example 671] | 34% | – |
| Cc1cc(NC(=O)Cn2ncc3ncc(N(C)C4CCCC4)nc32)cc2ncnn12 [Example 672] | 56% | – |
| CN(c1cnc2cnn(CC(=O)N3CCN(c4cccnc4)CC3)c2n1)C1CCCC1 [Example 673] | – | Nav1.1 current amplification rate (%) [3]: 20% |
| CN(C)c1nc2cc(NC(=O)Cn3ncc4ncc(N(C)C5CCCC5)nc43)ccc2o1 [Example 674] | 62% | – |
| Cc1nc2cc(NC(=O)Cn3ncc4ncc(N(C)C5CCCC5)nc43)ccc2o1 [Example 675] | 36% | – |
| Cc1nc2cc(NC(=O)Cn3ncc4ncc(N(C)C5CCCC5)nc43)cnc2s1 [Example 676] | 36% | – |
| Cc1cc(NC(=O)Cn2ncc3ncc(N(C)C4CCCC4)nc32)cn2ncnc12 [Example 677] | 35% | – |
| CN(c1cnc2cnn(CC(=O)Nc3ccc4oc(C(F)F)nc4c3)c2n1)C1CCCC1 [Example 678] | 132% | – |
| CN(c1cnc2cnn(CC(=O)Nc3ccc4cnnn4c3)c2n1)C1CCCC1 [Example 679] | 63% | – |
| CN(c1cnc2cnn(CC(=O)Nc3ccc4nccnc4c3)c2n1)C1CCCC1 [Example 680] | 50% | – |
| Cc1nccn1-c1ccc(NC(=O)Cn2ncc3ncc(N(C)C4CCCC4)nc32)cc1 [Example 681] | 26% | – |
| CN(c1cnc2cnn(CC(=O)Nc3ccc(-n4ccnc4)nc3)c2n1)C1CCCC1 [Example 682] | 53% | – |
| CN(c1cnc2cnn(CC(=O)Nc3ccc(C#N)nc3)c2n1)C1CCCC1 [Example 683] | 63% | – |
| Cc1cc(NC(=O)Cn2ncc3ncc(N(C)C4CCCC4)nc32)cc2nccn12 [Example 684] | 39% | – |
| CN(c1cnc2cnn(CC(=O)Nc3ccn4ccnc4c3)c2n1)C1CCC1 [Example 685] | 41% | – |
| Cc1cn2ccc(NC(=O)Cn3ncc4ncc(N(C)C5CCC5)nc43)cc2n1 [Example 686] | 13% | – |
| Cc1cc(NC(=O)Cn2ncc3ncc(N(C)C4CCC4)nc32)cc2ncnn12 [Example 687] | 67% | – |
| CN(c1cnc2cnn(CC(=O)N3CCc4c(C5=CCOCC5)cccc43)c2n1)C1CCC1 [Example 688] | 201% | – |

| SMILES | Nav1.1 current amplification rate (%) [2] | also measured |
| --- | --- | --- |
| CN(c1cnc2cnn(CC(=O)N3CCc4c(-c5ccncc5)cccc43)c2n1)C1CCC1 [Example 689] | 286% | – |
| CN(c1cnc2cnn(CC(=O)N3CCc4cc(C#N)ccc43)c2n1)C1CCC1 [Example 691] | – | Nav1.1 current amplification rate (%) [3]: 11% |
| CN(c1cnc2cnn(CC(=O)Nc3cncc(Br)c3)c2n1)C1CCC1 [Example 692] | 33% | – |
| CN(c1cnc2cnn(CC(=O)N3CCc4c(-c5ccnn5C)cccc43)c2n1)C1CCC1 [Example 693] | 13% | – |
| CN(c1cnc2cnn(CC(=O)N3CCc4c(-c5cnn(C)c5)cccc43)c2n1)C1CCC1 [Example 694] | 448% | – |
| CC(=O)N1CC(c2cccc3c2CCN3C(=O)Cn2ncc3ncc(N(C)C4CCC4)nc32)C1 [Example 695] | 219% | – |
| CN(c1cnc2cnn(CC(=O)N3CCc4c(C5CN(C(=O)CO)C5)cccc43)c2n1)C1CCC1 [Example 696] | 306% | – |
| CN1CCN(c2cccc3c2CCN3C(=O)Cn2ncc3ncc(N(C)C4CCC4)nc32)CC1 [Example 697] | 21% | – |
| CN1CC(c2cccc3c2CCN3C(=O)Cn2ncc3ncc(N(C)C4CCC4)nc32)C1 [Example 698] | 18% | – |
| CN(c1cnc2cnn(CC(=O)N3CCc4c(-c5ccnnc5)cccc43)c2n1)C1CC1 [Example 699] | 366% | – |
| CN(c1cnc2cnn(CC(=O)N3CC=C(c4cccnc4)CC3)c2n1)C1CC1 [Example 700] | – | Nav1.1 current amplification rate (%) [3]: 13% |
| CN(c1cnc2cnn(CC(=O)Nc3ccn4ccnc4c3)c2n1)C1CC1 [Example 702] | 60% | – |
| Cc1cn2ccc(NC(=O)Cn3ncc4ncc(N(C)C5CC5)nc43)cc2n1 [Example 703] | 27% | – |
| Cc1cc(NC(=O)Cn2ncc3ncc(N(C)C4CC4)nc32)cc2ncnn12 [Example 704] | 109% | – |
| CN(c1cnc2cnn(CC(=O)N3CCc4cc(N5CCOCC5)ccc43)c2n1)C1CC1 [Example 705] | 54% | – |
| CC(C)c1ccc(NC(=O)Cn2ncc3ncc(N(C)C4CC4)nc32)cn1 [Example 708] | – | Nav1.1 current amplification rate (%) [3]: 25% |
| CN(c1cnc2cnn(CC(=O)Nc3ccc4cccnc4n3)c2n1)C1CC1 [Example 712] | – | Nav1.1 current amplification rate (%) [1]: 78% |
| CN(c1cnc2cnn(CC(=O)N3CCN(c4cccc(F)c4)CC3)c2n1)C1CC1 [Example 714] | – | Nav1.1 current amplification rate (%) [3]: 11% |
| CN(c1cnc2cnn(CC(=O)Nc3ccc4ccccc4n3)c2n1)C1CC1 [Example 717] | – | Nav1.1 current amplification rate (%) [3]: 23% |
| CN(c1cnc2cnn(CC(=O)Nc3cc4ccccc4cn3)c2n1)C1CC1 [Example 718] | – | Nav1.1 current amplification rate (%) [1]: 34% |
| CN(c1cnc2cnn(CC(=O)Nc3ccc4ncccc4n3)c2n1)C1CC1 [Example 725] | – | Nav1.1 current amplification rate (%) [4]: 51% |
| CN(c1cnc2cnn(CC(=O)Nc3cccnc3)c2n1)C1CC1 [Example 726] | – | Nav1.1 current amplification rate (%) [4]: 31% |
| CN(c1cnc2cnn(CC(=O)Nc3cc4ccccc4nn3)c2n1)C1CC1 [Example 727] | – | Nav1.1 current amplification rate (%) [4]: 71% |
| CN(c1cnc2cnn(CC(=O)Nc3cc4cccnc4cn3)c2n1)C1CC1 [Example 729] | – | Nav1.1 current amplification rate (%) [4]: 55% |
| CN(c1cnc2cnn(CC(=O)N3CCc4c3cccc4C(F)(F)F)c2n1)C1CC1 [Example 731] | – | Nav1.1 current amplification rate (%) [4]: 102% |
| CC1CC=C(c2cnc3cnn(CC(=O)Nc4ccc5ocnc5c4)c3n2)CC1 (stereo not drawn) [Example 735] | – | activation at 1 µM: 321% |
| O=C(Cn1ncc2ncc(N3CCC4(CCC4)CC3)nc21)N1CCN(c2cccnc2)CC1 [Example 736] | – | activation at 1 µM: 13% |

Continued, in another order:

| Nav1.1 current amplification rate (%) [2] | SMILES | also measured |
| --- | --- | --- |
| 195% | CN(c1cnc2cnn(CC(=O)Nc3ccc4cnccc4c3)c2n1)C1CC1 [Example 706] | – |
| 62% | CN(c1cnc2cnn(CC(=O)Nc3ccc4cnnn4c3)c2n1)C1CC1 [Example 707] | – |
| 44% | CN(c1cnc2cnn(CC(=O)Nc3ccc(C#N)nc3)c2n1)C1CC1 [Example 709] | – |
| 100% | CN(c1cnc2cnn(CC(=O)Nc3ccc4cccnc4c3)c2n1)C1CC1 [Example 711] | – |
| 112% | CN(c1cnc2cnn(CC(=O)Nc3cnc4cccnc4c3)c2n1)C1CC1 [Example 713] | – |
| 13% | CN(c1cnc2cnn(CC(=O)N3CCc4c(C#N)cccc43)c2n1)C1CC1 [Example 715] | – |
| 45% | CN1CCN(c2cccc3c2CCN3C(=O)Cn2ncc3ncc(N(C)C4CC4)nc32)CC1 [Example 716] | – |
| 78% | CN(c1cnc2cnn(CC(=O)Nc3cnc4ccccc4c3)c2n1)C1CC1 [Example 719] | – |
| 230% | CN(c1cnc2cnn(CC(=O)N3CCc4c(CN5CC=CC5)cccc43)c2n1)C1CC1 [Example 720] | – |
| 17% | CN(c1cnc2cnn(CC(=O)Nc3ccc4cnccc4n3)c2n1)C1CC1 [Example 721] | – |
| 35% | CN(c1cnc2cnn(CC(=O)Nc3ccc(Cl)nc3)c2n1)C1CC1 [Example 722] | – |
| 95% | CN(c1cnc2cnn(CC(=O)Nc3cnc4ncccc4c3)c2n1)C1CC1 [Example 723] | – |
| 28% | CN(c1cnc2cnn(CC(=O)Nc3ccc4ccncc4n3)c2n1)C1CC1 [Example 724] | – |
| 71% | CN(c1cnc2cnn(CC(=O)Nc3ccc4ncncc4c3)c2n1)C1CC1 [Example 728] | – |
| 133% | CN(c1cnc2cnn(CC(=O)N3CCc4c(C5CC5)cccc43)c2n1)C1CC1 [Example 730] | – |
| 152% | CN(c1cnc2cnn(CC(=O)Nc3ccc4ccncc4c3)c2n1)C1CC1 [Example 732] | – |
| 76% | CN(c1cnc2cnn(CC(=O)Nc3ccc4cnncc4c3)c2n1)C1CC1 [Example 733] | – |
| 107% | CN(c1cnc2cnn(CC(=O)N3CCc4c3cccc4C(C)(C)O)c2n1)C1CC1 [Example 734] | – |
